In patent US10188754B2, “Compositions and methods for chemical exchange saturation transfer (CEST) based magnetic resonance imaging (MRI)” (THE JOHNS HOPKINS UNIVERSITY, priority 2013, dated 2019):

Assay: Screening of beta-hydroxy carboxylate analogs for CEST contrast (Table 4A)
Description: All compounds were dissolved in 0.01M phosphate-buffered saline (PBS) with concentrations of 100 mM. They were then titrated by HCl/NaOH to the pH of 6 to 8. The solutions were placed into 1-mm capillary tubes and then assembled in a holder for high throughput CEST MR imaging. […] CEST contrast was quantified by: MTRasym=(S−Δω−S+Δω)/S0 after a voxel-by-voxel B0 correction, with characterized mean Z-spectra and MTRasym spectra for sample ROIs plotted in FIG. 22.

Row | Compound | Signal (ppm) (Concentration 10 mM) | kex (Concentration 10 mM) [s⁻¹] | other results
1 | O=C(O)c1ccccc1O [Entry 1] | 9.3 ppm | 400 | –
2 | O=C(O)CNC(=O)c1ccccc1O [Entry 3] | None | – | –
3 | COC(=O)c1ccccc1O [Entry 4] | None | – | –
4 | COC(=O)c1cc([N+](=O)[O-])ccc1O [Entry 5] | None | – | –
5 | O=[N+]([O-])c1ccccc1O [Entry 6] | None | – | –
6 | COC(=O)c1ccc(O)c([N+](=O)[O-])c1 [Entry 7] | None | – | –
7 | [O-][n+]1cccc2cccc(O)c21 [Entry 8] | 9.5 ppm | 32 | –
8 | O=Cc1cc(C(=O)O)ccc1O [Entry 9] | None | – | –
9 | O/N=C/c1ccccc1O [Entry 10] | None | – | –
10 | O=C(O)c1ccc(O)c(/C=N/CC/N=C/c2cc(C(=O)O)ccc2O)c1 [Entry 11] | 7.8 ppm | 15400 | –
11 | Oc1ccccc1-c1nnn[nH]1 [Entry 13] | None | – | –
12 | NC(Cc1cc(I)c(O)c(I)c1)C(=O)O (stereo not shown) [Entry 14] | None | – | –
13 | O=C(O)c1cc(O)ccc1O [Entry 15] | 8.5 ppm | 400 | –
14 | Nc1ccc(O)c(C(=O)O)c1 [Entry 16] | 8.5 ppm | 380 | –
15 | O=C(O)c1cc(Cl)ccc1O [Entry 17] | 9.0 ppm | 290 | –
16 | O=C(O)c1cc([N+](=O)[O-])ccc1O [Entry 19] | 10.3 ppm | 5660 | –
17 | O=C(O)c1cc([N+](=O)[O-])cc([N+](=O)[O-])c1O [Entry 20] | None | – | –
18 | O=C(O)c1ccc(O)cc1O [Entry 21] | 9.5 ppm | 462 | –
19 | Nc1ccc(C(=O)O)c(O)c1 [Entry 22] | 9.5 ppm | 384 | –

Row | Compound | Signal (ppm) (Concentration 10 mM) | kex (Concentration 10 mM) [s⁻¹] | other results
20 | O=C(O)c1ccc(C(=O)O)c(O)c1 [Entry 23] | 9.3 ppm | 420 | –
21 | O=C(O)c1ccc([N+](=O)[O-])cc1O [Entry 24] | 9.5 ppm | 1500 | –
22 | O=C(O)c1c(O)ccc2ccccc12 [Entry 25] | 9.5 ppm | 4400 | –
23 | COc1cccc(O)c1C(=O)O [Entry 26] | 9.0 ppm | 4900 | –
24 | O=C(O)c1c(O)cccc1O [Entry 27] | 9.3 ppm | 30 | –
25 | Cc1cccc(C(=O)O)c1O [Entry 28] | 9.5 ppm | 250 | –
26 | CC(C)(C)c1cc(C(=O)O)c(O)c(C(C)(C)C)c1 [Entry 29] | – | – | Signal (ppm) (Concentration 20 mM): 9.3 ppm; kex (Concentration 20 mM): 22 s⁻¹
27 | O=C(O)c1cccc(F)c1O [Entry 30] | 9.5 ppm | 750 | –
28 | O=C(O)c1cc(Cl)cc(Cl)c1O [Entry 31] | 10.3 ppm | 1070 | –
29 | O=C(O)c1cc(Br)cc(Br)c1O [Entry 32] | 10.5 ppm | 580 | –
30 | O=C(O)c1cc(I)cc(I)c1O [Entry 33] | 10.8 ppm | 310 | –
31 | O=C(O)c1ccc2ccccc2c1O [Entry 34] | 10.5 ppm | 220 | –
32 | O=C(O)c1ccc2cccnc2c1O [Entry 35] | 10.3 ppm | 1530 | –
33 | O=C(O)c1cccc(O)c1O [Entry 36] | 9.0 ppm | 2000 | –
34 | COc1cccc(C(=O)O)c1O [Entry 37] | 9.3 ppm | 480 | –
35 | Nc1cccc(C(=O)O)c1O [Entry 38] | 9.0 ppm | 410 | –
36 | O=Cc1cccc(C(=O)O)c1O [Entry 39] | 10.5 ppm | 510 | –
37 | O=C(O)c1cccc(C(=O)O)c1O [Entry 40] | 9.5 ppm | 6680 | –
38 | O=C(O)c1cccc([N+](=O)[O-])c1O [Entry 41] | 12.0 ppm | 1430 | –

Row | Compound | Signal (ppm) (Concentration 10 mM) | kex (Concentration 10 mM) [s⁻¹] | other results
39 | O=C(O)c1cc(O)c(C(=O)O)cc1O [Entry 42] | 8.3 ppm | 990 | –
40 | O=C(O)c1cc(C(=O)O)c(O)cc1O [Entry 43] | 9.8 ppm | 460 | –
41 | O=C(O)c1cc2ccccc2c(Cc2c(O)c(C(=O)O)cc3ccccc23)c1O [Entry 44] | 9.5 ppm | 130 | –
42 | O=C(O)c1ccc(-c2ccc(F)cc2F)cc1O [Entry 45] | – | – | Signal (ppm) (Concentration 25 mM): 9.3 ppm; kex (Concentration 25 mM): 650 s⁻¹
43 | O=C(O)c1cc(/N=N\c2ccc(S(=O)(=O)Nc3ccccn3)cc2)ccc1O [Entry 46] | – | – | Signal (ppm) (Concentration 25 mM): 9.6 ppm; kex (Concentration 25 mM): 1000 s⁻¹
44 | Nc1ccccc1C(=O)O [Entry 47] | – | – | Signal (ppm) (Concentration 25 mM): None
45 | CNc1ccccc1C(=O)O [Entry 48] | – | – | Signal (ppm) (Concentration 25 mM): None
46 | O=C(O)c1ccccc1Nc1ccccc1 [Entry 49] | 4.8 ppm | 674 | –
47 | O=C(O)c1ccccc1Nc1cccc(C(F)(F)F)c1 [Entry 50] | 4.8 ppm | 1000 | –
48 | Cc1ccc(Cl)c(Nc2ccccc2C(=O)O)c1Cl [Entry 51] | – | – | Signal (ppm) (Concentration 5 mM): 4.8 ppm
49 | Cc1cccc(Nc2ccccc2C(=O)O)c1C [Entry 52] | – | – | Signal (ppm) (Concentration 5 mM): None
50 | Cc1cccc(Nc2ccccc2C(=O)O)c1Cl [Entry 53] | – | – | Signal (ppm) (Concentration 5 mM): None
51 | O=C(O)c1cccnc1Nc1cccc(C(F)(F)F)c1 [Entry 54] | None | – | –
52 | CC(=O)Nc1ccccc1C(=O)O [Entry 55] | – | – | Signal (ppm) (Concentration 25 mM): None
53 | CC(C)(C)OC(=O)Nc1ccccc1C(=O)O [Entry 56] | – | – | Signal (ppm) (Concentration 25 mM): None
54 | O=C(O)c1ccccc1NC(=O)C(F)(F)F [Entry 57] | 9.3 ppm | 190 | –
55 | CS(=O)(=O)Nc1ccccc1C(=O)O [Entry 58] | 7.3 ppm | 470 | –
56 | CS(=O)(=O)Nc1ccc(Cl)cc1C(=O)O [Entry 59] | – | – | Signal (ppm) (Concentration 25 mM): 7.3 ppm; kex (Concentration 25 mM): 1000 s⁻¹
